Experiments:
Type in all cases: toxicity, cell-based
[1] = tested on: HEK-293T; experiment: Incucyte cell viability with HEK293T; details: human, 10 µM, compound concentration 10 uM
[2] = tested on: Fibroblast; experiment: Incucyte cell viability with human fibroblast; details: 10 µM, compound concentration 10 uM
[3] = tested on: U2OS; experiment: Incucyte cell viability with U2OS; details: human, 10 µM, compound concentration 10 uM
[4] = 0 h, replicate number 1, timepoint 0 hours
[5] = 0 h, replicate number 2, timepoint 0 hours
[6] = 6 h, replicate number 1, timepoint 6 hours
[7] = 12 h, replicate number 1, timepoint 12 hours
[8] = 12 h, replicate number 2, timepoint 12 hours
[9] = 18 h, replicate number 1, timepoint 18 hours
[10] = 18 h, replicate number 2, timepoint 18 hours
[11] = 24 h, replicate number 1, timepoint 24 hours
[12] = 24 h, replicate number 2, timepoint 24 hours
[13] = 6 h, replicate number 2, timepoint 6 hours
Further: filed as whole numbers so only -1 and 0 and 1 occur.

Row | Structure (SMILES) | Growth Rate [1, 4] | Growth Rate [1, 6] | Growth Rate [1, 7] | Growth Rate [1, 8] | Growth Rate [1, 9] | Growth Rate [1, 11] | Growth Rate [1, 12] | Growth Rate [2, 4] | Growth Rate [2, 7] | Growth Rate [2, 9] | Growth Rate [2, 10] | Growth Rate [2, 11] | Growth Rate [3, 4] | Growth Rate [3, 6] | Growth Rate [3, 7] | Growth Rate [3, 8] | Growth Rate [3, 9] | Growth Rate [3, 11] | Growth Rate [3, 12] | Growth Rate [2, 6] | other results
1 | CNc1cc2[nH]c(=O)n(-c3ccc(NC(=O)NS(=O)(=O)c4ccc(Cl)s4)cc3)c(=O)c2cc1F [ELINOGREL] | 1 | 0 | 0 | 1 | 0 | 0 | 1 | 0 | 1 | 1 | 0 | 1 | 1 | 0 | 0 | 1 | 0 | 0 | 1 |  | Growth Rate [1, 5]: 0; Growth Rate [1, 10]: 1; Growth Rate [2, 5]: 1; Growth Rate [2, 13]: 0; Growth Rate [2, 8]: 0; Growth Rate [2, 12]: 0; Growth Rate [3, 10]: 1
2 | CN1CC(=O)N=C1NC(=O)Nc1cccc(Cl)c1 [FENOBAM ANHYDROUS] | 0 | 1 | 1 | 0 | 1 | 1 | 0 | 0 | 1 | 1 |  | 1 | 0 |  | 0 | 1 | 1 | 1 |  |  | Growth Rate [1, 10]: 0; Growth Rate [3, 13]: 1
3 | CN(C)CCCn1cc(C2=C(c3c[nH]c4ccccc34)C(=O)NC2=O)c2ccccc21 [GF-109203] | 0 | 0 | 0 |  | 0 | 0 |  | 0 | 1 | 0 | 1 | 0 |  |  | 1 |  | 0 | 0 |  |  | Growth Rate [1, 5]: 1; Growth Rate [3, 5]: 0
4 | COc1ccc(COc2ccc(Cc3cnc(N)nc3N)cc2OC)cc1 [GW632580X] |  | 0 | 0 |  | 0 | 0 |  | 1 | 1 | 1 | 0 | 1 | 0 | 0 | 1 | 0 | 1 | 1 | 0 | 1 | Growth Rate [2, 13]: 0; Growth Rate [2, 8]: 0; Growth Rate [2, 12]: 0; Growth Rate [3, 10]: 0
5 | N#Cc1ccccc1OCC(O)CNCCNC(=O)Nc1ccccc1 (configuration not stated) [ICI-89406] | 1 | 0 | 0 | 1 | 1 | 1 |  | 0 | 0 | 0 |  | 0 | 0 | 1 | 0 |  | 0 | 1 | 0 | 0 | Growth Rate [1, 5]: 0; Growth Rate [3, 13]: 0
6 | Cc1cccc(NC(=O)N[C@@H]2N=C(c3ccccc3)c3ccccc3N(C)C2=O)c1 [L-365260] | 0 | 0 | 0 |  | 0 | 0 |  | 0 | 1 | 0 |  | 1 | 0 | 0 | 1 | 0 | 0 | 0 | 1 |  | Growth Rate [3, 5]: 1
7 | CCC(=O)N1CC[C@H](Nc2ncnc3c2CN(c2cnc(OC)c(C(F)(F)F)c2)CC3)C1 [LENIOLISIB] |  |  |  | 1 |  |  | 1 |  | 0 | 0 |  | 0 | 0 | 0 | 0 | 1 | 0 | 0 |  | 0 | Growth Rate [1, 13]: 0; Growth Rate [2, 5]: 1; Growth Rate [3, 5]: 1
8 | CCCCc1nc(Cl)c(CO)n1Cc1ccc(-c2ccccc2-c2nn[nH]n2)cc1 [LOSARTAN] | 0 | 1 | 1 | 0 | 1 | 1 | 0 | 0 | 1 | 1 | 0 | 1 | 0 | 0 | 1 |  | 0 | 0 | 1 | 1 | Growth Rate [1, 13]: 0; Growth Rate [1, 10]: 0; Growth Rate [2, 13]: 0; Growth Rate [2, 8]: 0; Growth Rate [2, 12]: 0; Growth Rate [3, 13]: 1; Growth Rate [3, 10]: 1

Reference: ChEMBL document CHEMBL4689842, “EUbOPEN Chemogenomics Library wave 1” (2021)
